Tests used:
Type 3 Phosphodiesterase = test: PDE inhibition, Type 3 phosphodiesterase, smooth muscle (bovine coronary arteries); type: biochemical; conditions: 1 × 10^-5 M
Description: The method of Thompson, et al (Thompson, W. J., Terasaki, W. L., Epstein, P. M., Strada, S. J., Adv. Cyclic Nucleotide Res., 10:69-92, 1979), with minor modifications, was used to isolate phosphodiesterases from vascular smooth muscle. Bovine coronary arteries (right, anterior descending, and left circumflex arteries) from hearts obtained from a local slaughterhouse were used for these studies. Arteries from two hearts were used for each isolation. Hearts were kept on ice and the arteries were dissected within two hours after the animals were sacrificed. After removing all fat and connective tissue, the arteries were everted, cut into cubes with a single edge razor blade and homogenized with a Brinkman Polytron three times at a rheostat setting of 10.0 in four volumes of the PDE isolation buffer (10 mM Tris-HCl/pH 7.5, 2 mM MgCl2, and 1 mM dithiothreitol). The resulting homogenate was sonicated (30 sec/ml homogenate) and then centrifuged at 30,000×g for 20 minutes. This and all subsequent procedures were performed at 4° C. […]
(§1) Phosphodiesterase activity was measured as described previously (Weishaar, P. E., Quade, M., Boyd, D., Schenden, J., Mark, S. S., Kaplan, H. R., Drug Devel. Res., 3:517-534, 1983), in a reaction medium containing 40 mM Tris-HCl (pH 8.0), 5 mM MgCl and 4 mM 2-mercaptoethanol. […]

[1] = system: pentobarbital-anesthetized dog; test: In vivo myocardial inotropic activity in anesthetized dog (CVAD); parameters: species or system dog (adult mongrel); conditions: for Percent Change Heart Rate / Percent Change Myocardial Contractility / Percent Change Blood Pressure (second value) / Percent Change Blood Pressure (first value): intravenous; for Percent Change Blood Pressure (second value): value after the slash; for Percent Change Blood Pressure (first value): value before the slash
Experimental: This test procedure is described in the following paragraphs.
This screen consists of determining the effects of increasing intravenous doses of compound on mycardial contractility (dP/dt max of left ventricular blood pressure), heart rate, and aortic blood pressure of the pentobarbital-anesthetized dog.
Adult mongrel dogs of either sex are anesthetized with pentobarbital, 35 mg/kg, IV, and are subsequently maintained under anesthesia with a continuous infusion of pentobarbital, 3.5 mg/kg/hour. The trachea is intubated but the animals are permitted to breathe spontaneously. A cannula is inserted into the femoral vein for administrating test agents. A Millar catheter tip pressure transducer or a fluid filled catheter is inserted into the ascending aorta via the femoral artery for measuring aortic blood pressure. A Millar catheter tip pressure transducer is passed into the left ventricle via the left carotid artery for measuring left ventricular blood pressure. Needle electrodes are placed subcutaneously for recording a lead II electrocardiogram (ECG).
Left ventricular and aortic blood pressures are recorded on a strip chart recorder. Heart rate, using a biotachometer triggered from the R wave of the ECG, and the first derivative of left ventricular blood pressure (dP/dt), obtained with a differentiator amplifier coupled to the corresponding pressure amplifier, are also recorded. A period of at least 30 minutes is utilized to obtain control data prior to administration of test compound.
Depending on solubility, the compounds are dissolved in 0.9% saline solution or in dilute HCl or NaOH (0.1 to 1.0N) and are diluted to volume with normal saline. Ethanol or dimethylacetamide can be used as solvents if adequate dilutions can be made. Appropriate vehicle controls are administered when needed.
Each dose of the test compound is administered in a volume of […] over a period of one minute.

Type 1 Phosphodiesterase = test: PDE inhibition, Type 1 phosphodiesterase, smooth muscle (bovine coronary arteries); type: biochemical; conditions: 1 × 10^-5 M
Description: The method of Thompson, et al (Thompson, W. J., Terasaki, W. L., Epstein, P. M., Strada, S. J., Adv. Cyclic Nucleotide Res., 10:69-92, 1979), with minor modifications, was used to isolate phosphodiesterases from vascular smooth muscle. Bovine coronary arteries (right, anterior descending, and left circumflex arteries) from hearts obtained from a local slaughterhouse were used for these studies. Arteries from two hearts were used for each isolation. Hearts were kept on ice and the arteries were dissected within two hours after the animals were sacrificed. After removing all fat and connective tissue, the arteries were everted, cut into cubes with a single edge razor blade and homogenized with a Brinkman Polytron three times at a rheostat setting of 10.0 in four volumes of the PDE isolation buffer (10 mM Tris-HCl/pH 7.5, 2 mM MgCl2, and 1 mM dithiothreitol). The resulting homogenate was sonicated (30 sec/ml homogenate) and then centrifuged at 30,000×g for 20 minutes. This and all subsequent procedures were performed at 4° C. The resulting supernatant was filtered through four layers of gauze, and applied to a DEAE-cellulose column (30×1.5 cm), prepared as described by Cheung (Cheung, W. Y., Biochim. Biopphys. Acta, 191:303-315, 1969), and equilibrated with freshly prepared 70 mM sodium acetate/5 mM 2-mercaptoethanol (pH 6.5). The column was then washed with 2-3 bed volumes of sodium acetate/2-mercaptoethanol, after which the phosphodiesterases were eluted from the column using a continuous 70-1,000 mM sodium acetate gradient (pH 6.5, containing 5 mM 2-mercaptoethanol; total volume 400 ml). The flow rate was approximately equal to 25 ml/hr. Eight ml fractions were collected and assayed for cyclic AMP- and cyclic GMP-phosphodiesterase activity in the presence and absence of 0.1 units of calmodulin and 10 mM CaCl2. Appropriate fractions were pooled and dialyzed against 70 mM sodium acetate/5 mM 2-mercaptoethanol for 20 hours.
Following complete separation, the combined phosphodiesterase fractions were concentrated to 14% of the original volume using an Amicon ultrafiltration cell fitted with a UM-10 membrane, according to the method of Wells, et al (Wells, J. N., Baird, C. E., Wu, Y. J., Hardman, J. G., Biochim. Biophys. Acta, 384:430-442, 1975). Following concentration, the protein was then diluted to 65% with ethylene glycol monoethyl ether, and stored at -20° C.
as §1, with “2-mercaptoethanol. Unless otherwise noted, the concentration of substrate (^3 H-cyclic AMP or ^3 H-cyclic GMP) was 1.0 μM.” for “2-mercaptoethanol.”

[2] = intravenously at about 0.01 to 0.31 mg/kg

| SMILES | % Inhibition of 3H-cAMP Hydrolysis, Type 3 Phosphodiesterase (Type 3 Phosphodiesterase) | Percent Change Heart Rate ([1]; 0.10 mg/kg) | Percent Change Myocardial Contractility ([1]; 0.10 mg/kg) | Percent Change Blood Pressure (second value) ([1]; 0.10 mg/kg) | Percent Change Blood Pressure (first value) ([1]; 0.10 mg/kg) | Percent Change Heart Rate ([1]; 1.00 mg/kg) | Percent Change Myocardial Contractility ([1]; 1.00 mg/kg) | Percent Change Blood Pressure (second value) ([1]; 1.00 mg/kg) | Percent Change Blood Pressure (first value) ([1]; 1.00 mg/kg) | Percent Change Heart Rate ([1]; 3.10 mg/kg) | Percent Change Myocardial Contractility ([1]; 3.10 mg/kg) | Percent Change Blood Pressure (second value) ([1]; 3.10 mg/kg) | Percent Change Blood Pressure (first value) ([1]; 3.10 mg/kg) | % Inhibition of 3H-cAMP Hydrolysis, Type 1 Phosphodiesterase (Type 1 Phosphodiesterase) | % Inhibition of 3H-cGMP Hydrolysis, Type 1 Phosphodiesterase (Type 1 Phosphodiesterase) | further results |
| --- | --- | --- | --- | --- | --- | --- | --- | --- | --- | --- | --- | --- | --- | --- | --- | --- |
| Cc1nn(C)c2c(=O)[nH]c(=O)[nH]c12 [Example 1, 1,3-Dimethylpyrazolo[4,3-d]pyrimidine-5,7-(4H, 6H)dione] | N (0-20% inhibition at 1 × 10^-5 M) | 1% | 5% | 1% | 1% | 5% | 41% | -2% | 0% | 15% | 90% | -4% | -2% | N (0-20% inhibition at 1 × 10^-5 M) | N (0-20% inhibition at 1 × 10^-5 M) | Percent Change Heart Rate ([1]; 0.31 mg/kg): 1%; Percent Change Myocardial Contractility ([1]; 0.31 mg/kg): 13%; Percent Change Blood Pressure (second value) ([1]; 0.31 mg/kg): -1%; Percent Change Blood Pressure (first value) ([1]; 0.31 mg/kg): 1%; blood pressure (in words) [1, 2]: moderate reduction in blood pressure; cardiac contractility (in words) [1, 2]: dose related significant increases in cardiac contractility; heart rate (in words) [1, 2]: only low or minimal changes in heart rate |
| CCn1nc(C)c2[nH]c(=S)[nH]c(=O)c21 [Example 2, 1-Ethyl-1,4,5,6-tetrahydro-3-methyl-pyrazolo[4,3-d]pyrimidine-5-thione-7-on] | B (36-55% inhibition at 1 × 10^-5 M) | 3% | 5% | -1% | -1% | -1% | 13% | -4% | -2% | 5% | 45% | -9% | -6% | N (0-20% inhibition at 1 × 10^-5 M) | N (0-20% inhibition at 1 × 10^-5 M) | Percent Change Heart Rate ([1]; 0.30 mg/kg): 2%; Percent Change Myocardial Contractility ([1]; 0.30 mg/kg): 8%; Percent Change Blood Pressure (second value) ([1]; 0.30 mg/kg): -4%; Percent Change Blood Pressure (first value) ([1]; 0.30 mg/kg): -3% |

Reference: US4663326A, “Pyrazolo[4,3-d]pyrimidine-5,7-(4H,6H)dione or -5-thione-7-one analogs” (Warner-Lambert Company, priority 1985, dated 1987)
